# In ChEMBL document CHEMBL6134780, “Halogenated retinoid derivatives as dual RARα and RXRα modulators for treating acute promyelocytic leukemia cells” (Eur J Med Chem, 2024):
# The source made the active and inactive calls. No cut-off for these calls is given here.
# Experiments:
# [1] = test system: ATRA-resistant NB4-LR2; test: Antiproliferative activity against human ATRA-resistant NB4-LR2 cells assessed as effect on cell viability up to 2 uM incubated for 3 days by CCK8 assay; assay type: functional, cell-based; conditions: time 3.0 day
# [2] = target: T1, Retinoic acid receptor gamma (Homo sapiens, UniProt P13631); test: Agonist activity at Gal4-fused full length human RARgamma LBD transfected in HEK293T cells co-transfected with pG5luc reporter and Renilla-luc assessed as transactivation incubated for 12 hrs by dual luciferase reporter gene assay; assay type: cell-based; conditions: hek293t
# T1 sequence (P13631 whole entry): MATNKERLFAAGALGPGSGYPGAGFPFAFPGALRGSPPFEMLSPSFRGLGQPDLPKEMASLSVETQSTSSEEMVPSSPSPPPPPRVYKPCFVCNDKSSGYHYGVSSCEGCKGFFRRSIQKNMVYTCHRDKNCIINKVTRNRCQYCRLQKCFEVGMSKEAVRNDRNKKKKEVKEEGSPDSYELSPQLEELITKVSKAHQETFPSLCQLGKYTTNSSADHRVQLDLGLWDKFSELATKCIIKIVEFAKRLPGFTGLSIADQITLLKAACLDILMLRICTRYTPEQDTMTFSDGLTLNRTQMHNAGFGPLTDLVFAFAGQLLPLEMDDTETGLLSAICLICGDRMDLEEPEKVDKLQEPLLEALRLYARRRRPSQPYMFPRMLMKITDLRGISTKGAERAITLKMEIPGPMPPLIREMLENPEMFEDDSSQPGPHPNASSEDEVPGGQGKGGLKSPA
# [3] = test system: NB-4; test: Antiproliferative activity against human NB4 cells assessed as inhibition of cell viability at 0.125 uM incubated for 3 days by CCK8 assay relative to control; assay type: functional; conditions: NB-4, 72 h, time 3 day
# [4] = test system: HEK293T; test: Agonist activity at full length RARalpha LBD R276E mutant (unknown origin) transfected in HEK293T cells co-transfected with pG5luc reporter and Renilla-luc at 1 uM incubated for 12 hrs by luciferase reporter gene assay; assay type: cell-based; conditions: Homo sapiens, filed as agonist
# [5] = test system: NB-4; test: Induction of apoptosis in human NB4 cells assessed as late apoptotic cells at 1 uM incubated for 24 hrs by Annexin V-FITC/PI staining based flow cytometric analysis (reference value: 3.20 %); assay type: functional
# [6] = test system: NB-4; test: Cell cycle arrest in human NB4 cells assessed as accumulation of cells at G2/M phase at 1 uM incubated for 12 hrs by DAPI staining based flow cytometric analysis (reference value: 26 %); assay type: functional
# [7] = test system: NB-4; test: Cell cycle arrest in human NB4 cells assessed as accumulation of cells at S phase at 1 uM incubated for 12 hrs by DAPI staining based flow cytometric analysis (reference value: 20 %); assay type: functional
# [8] = Cell cycle arrest in human ATRA-resistant NB4-LR2 cells assessed as accumulation of cells at S phase at 1 uM incubated for 12 hrs by DAPI staining based flow cytometric analysis (reference value: 12 %); assay type: functional
# [9] = test system: K562; test: Effect on cell cycle population in human K562 cells at 0.5 uM by DAPI staining based flow cytometric analysis; assay type: functional
# [10] = Cell cycle arrest in human ATRA-resistant NB4-LR2 cells assessed as accumulation of cells at sub-G1 phase at 1 uM incubated for 12 hrs by DAPI staining based flow cytometric analysis (reference value: 18 %); assay type: functional
# [11] = test system: NB-4; test: Cell cycle arrest in human NB4 cells assessed as accumulation of cells at S phase at 0.5 uM incubated for 6 days for DAPI staining based flow cytometric analysis (reference value: 27 %); assay type: functional; conditions: time 6 day
# [12] = test system: K562; test: Induction of apoptosis in human K562 cells assessed as viable cells at 2 uM incubated for 24 hrs by Annexin V-FITC/PI staining based flow cytometric analysis (reference value: 90.02 %); assay type: functional; conditions: read-out: Activity
# [13] = test system: NB-4; test: Induction of apoptosis in human NB4 cells assessed as necrotic cells at 1 uM incubated for 24 hrs by Annexin V-FITC/PI staining based flow cytometric analysis (reference value: 0.07 %); assay type: functional
# [14] = test system: NB-4; test: Induction of cell differentiation in human NB4 cells assessed as NBT positive cells at 0.5 uM incubated for 6 days by Nitro Blue tetrazolium chloride based microscopic analysis (reference value: 0 %); assay type: functional; conditions: time 6 day
# [15] = test system: NB-4; test: Cell cycle arrest in human NB4 cells assessed as accumulation of cells at G2/M phase at 0.5 uM incubated for 6 days for DAPI staining based flow cytometric analysis (reference value: 15 %); assay type: functional; conditions: time 6 day
# [16] = Cell cycle arrest in human ATRA-resistant NB4-LR2 cells assessed as accumulation of cells at G2/M phase at 1 uM incubated for 12 hrs by DAPI staining based flow cytometric analysis (reference value: 28 %); assay type: functional
# [17] = test system: NB-4; test: Induction of apoptosis in human NB4 cells assessed as viable cells at 1 uM incubated for 24 hrs by Annexin V-FITC/PI staining based flow cytometric analysis (reference value: 92.36 %); assay type: functional; conditions: read-out: Activity
# [18] = Induction of apoptosis in human ATRA-resistant NB4-LR2 cells assessed as viable cells at 1 uM incubated for 24 hrs by Annexin V-FITC/PI staining based flow cytometric analysis (reference value: 87.30 %); assay type: functional; conditions: read-out: Activity
# [19] = test system: NB-4; test: Induction of apoptosis in human NB4 cells assessed as early apoptotic cells at 1 uM incubated for 24 hrs by Annexin V-FITC/PI staining based flow cytometric analysis (reference value: 4.37 %); assay type: functional
# [20] = test system: NB-4; test: Induction of cell differentiation in human NB4 cells at 0.5 uM incubated for 4 to 6 days by CD11b staining based flow cytometric analysis; assay type: functional; conditions: time 4-6 day
# [21] = test system: NB-4; test: Cell cycle arrest in human NB4 cells assessed as accumulation of cells at G0/G1 phase at 1 uM incubated for 12 hrs by DAPI staining based flow cytometric analysis (reference value: 51 %); assay type: functional
# [22] = Induction of apoptosis in human ATRA-resistant NB4-LR2 cells assessed as necrotic cells at 1 uM incubated for 24 hrs by Annexin V-FITC/PI staining based flow cytometric analysis (reference value: 0.08 %); assay type: functional
# [23] = test system: Jurkat; test: Induction of cell differentiation in human Jurkat cells at 0.5 uM incubated for 6 days by CD11b staining based flow cytometric analysis; assay type: functional; conditions: time 6.0 day
# [24] = test system: K562; test: Induction of apoptosis in human K562 cells assessed as necrotic cells at 2 uM incubated for 24 hrs by Annexin V-FITC/PI staining based flow cytometric analysis (reference value: 2.19 %); assay type: functional
# [25] = test system: NB-4; test: Cell cycle arrest in human NB4 cells assessed as accumulation of cells at sub-G1 phase at 1 uM incubated for 12 hrs by DAPI staining based flow cytometric analysis (reference value: 2 %); assay type: functional
# [26] = test system: NB-4; test: Induction of cell death in M phase synchronized human NB4 cells assessed as reduction in mitotic cells at 0.5 uM preincubated for 4 days followed by release from thymidine block for 10 hrs by immunofluorescence staining based analysis; assay type: functional; conditions: time 106.0 hrs
# [27] = Induction of apoptosis in human ATRA-resistant NB4-LR2 cells assessed as late apoptotic cells at 1 uM incubated for 24 hrs by Annexin V-FITC/PI staining based flow cytometric analysis (reference value: 7.23 %); assay type: functional
# [28] = target: T2, Retinoic acid receptor gamma (Homo sapiens) (UniProt P13631); test: Agonist activity at Gal4-fused full length human RARgamma LBD transfected in HEK293T cells co-transfected with pG5luc reporter and Renilla-luc assessed as transactivation by measuring maximal efficacy incubated for 12 hrs by dual luciferase reporter gene assay relative to control; assay type: cell-based; conditions: filed as agonist
# T2 sequence (whole entry): T1 sequence (P13631 whole entry)
# [29] = test system: K562; test: Induction of cell differentiation in human K562 cells at 0.5 uM incubated for 6 days by CD11b staining based flow cytometric analysis; assay type: functional; conditions: time 6.0 day
# [30] = test system: K562; test: Induction of apoptosis in human K562 cells assessed as early apoptotic cells at 2 uM incubated for 24 hrs by Annexin V-FITC/PI staining based flow cytometric analysis (reference value: 0.91 %); assay type: functional
# [31] = test system: NB-4; test: Cell cycle arrest in human NB4 cells assessed as accumulation of cells at sub-G1 phase at 0.5 uM incubated for 6 days for DAPI staining based flow cytometric analysis (reference value: 6 %); assay type: functional; conditions: time 6 day
# [32] = Cell cycle arrest in human ATRA-resistant NB4-LR2 cells assessed as accumulation of cells at G0/G1 phase at 1 uM incubated for 12 hrs by DAPI staining based flow cytometric analysis (reference value: 42 %); assay type: functional
# [33] = test system: NB-4; test: Antiproliferative activity against human NB4 cells assessed as inhibition of cell viability at 0.1 uM incubated for 3 days by CCK8 assay relative to control; assay type: functional; conditions: NB-4, 72 h, time 3 day
# [34] = Induction of apoptosis in human ATRA-resistant NB4-LR2 cells assessed as early apoptotic cells at 1 uM incubated for 24 hrs by Annexin V-FITC/PI staining based flow cytometric analysis (reference value: 5.38 %); assay type: functional
# [35] = species on record: Homo sapiens; test: Binding affinity to N-terminal His-tagged human RARalpha LBD R276E mutant extracted from Escherichia coli BL21 (DE3) cells by ITC analysis
# [36] = test system: K562; test: Induction of apoptosis in human K562 cells assessed as late apoptotic cells at 2 uM incubated for 24 hrs by Annexin V-FITC/PI staining based flow cytometric analysis (reference value: 5.98 %); assay type: functional
# [37] = test system: NB-4; test: Cell cycle arrest in human NB4 cells assessed as accumulation of cells at G0/G1 phase at 0.5 uM incubated for 6 days for DAPI staining based flow cytometric analysis (reference value: 52 %); assay type: functional; conditions: time 6 day
compound,measurement,setting,value
CC1(C)CCC(C)(C)c2cc(C(=O)Nc3ccc(C(=O)O)cc3)ccc21,Activity,[1],inactive
same,EC50,[2],Not_determined(Unstable)
same,inhibition at 0.125 µM,[3],~40%
same,Activity,[4],Active; Partial Impairment Observed
CC1=C(/C=C/C(C)=C/C=C/C(C)=C/C(=O)O)C(C)(C)CCC1 [TRETINOIN],Activity,[5],6.37%
same,Activity,[6],23%
same,Activity,[7],10%
same,Activity,[8],11%
same,Activity,[9],inactive
same,Activity,[10],19%
same,Activity,[11],17%
same,viability at 2 µM,[12],89.5%
same,Activity,[13],0.13%
same,Activity,[14],33%
same,Activity,[15],16%
same,Activity,[16],27%
same,viability at 1 µM,[17],90.4%
same,viability at 1 µM,[18],88.6%
same,Activity,[19],3.11%
same,Activity,[20],Active
same,Activity,[21],65%
same,Activity,[22],0.08%
same,Activity,[1],inactive
same,Activity,[23],inactive
same,Activity,[24],2.01%
same,Activity,[25],2%
same,Activity,[26],Active
same,Activity,[27],7.92%
same,Emax,[28],100%
same,Activity,[29],inactive
same,Activity,[30],1.04%
same,Activity,[31],3%
same,Activity,[32],43%
same,inhibition at 0.1 µM,[33],~40%
same,Activity,[4],Active; Partial Impairment Observed
same,Activity,[34],3.39%
same,Activity,[35],inactive
same,Activity,[36],6.84%
same,Activity,[37],64%
